In patent US20260124214A1, “HETEROCYCLIC COMPOUNDS FOR USE IN THE TREATMENT OF CANCER” (ARTIOS PHARMA LIMITED, priority 2021, published 2026):
Where a name gives a salt, the structure may show the parent alone.

Biological target: T1, Human Polθ polymerase domain (aa1820-2590) (Homo sapiens, UniProt O75417)
T1 construct: Human Polθ polymerase domain (aa1820-2590) was expressed in E. Coli; made in house; host or cells: E. coli
T1 sequence (O75417 1820-2590): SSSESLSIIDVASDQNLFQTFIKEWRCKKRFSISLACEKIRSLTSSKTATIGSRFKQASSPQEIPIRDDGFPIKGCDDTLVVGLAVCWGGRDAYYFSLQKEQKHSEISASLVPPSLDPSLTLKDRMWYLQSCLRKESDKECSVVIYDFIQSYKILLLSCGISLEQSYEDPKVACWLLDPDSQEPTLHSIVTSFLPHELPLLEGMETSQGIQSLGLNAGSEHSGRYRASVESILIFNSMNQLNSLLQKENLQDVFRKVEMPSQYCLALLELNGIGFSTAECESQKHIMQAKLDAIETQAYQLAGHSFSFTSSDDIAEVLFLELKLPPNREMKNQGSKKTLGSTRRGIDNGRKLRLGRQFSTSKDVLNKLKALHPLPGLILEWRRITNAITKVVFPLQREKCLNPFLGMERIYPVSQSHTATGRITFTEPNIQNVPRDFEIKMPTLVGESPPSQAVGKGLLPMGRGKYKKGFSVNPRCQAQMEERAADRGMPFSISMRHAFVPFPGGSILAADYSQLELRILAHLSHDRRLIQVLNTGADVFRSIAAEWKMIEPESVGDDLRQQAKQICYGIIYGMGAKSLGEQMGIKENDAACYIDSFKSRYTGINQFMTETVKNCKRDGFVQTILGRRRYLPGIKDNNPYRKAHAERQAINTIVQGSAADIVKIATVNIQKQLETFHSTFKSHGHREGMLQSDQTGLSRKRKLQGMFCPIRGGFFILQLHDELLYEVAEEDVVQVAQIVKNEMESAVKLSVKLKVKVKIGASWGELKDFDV
Experiment: Polθ Polymerase Domain WT KI Assay (PicoGreen)
Type: biochemical
Settings: 100 nM DNA substrate, 0.156 nM Polθ, initial rates vs inhibitor concentration
Summary of the method: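 E. coli-expressed human Polθ polymerase domain (aa1820-2590) on annealed DNA II Short/Long primer-template (1.2:1), in 25 mM Tris pH 7.5, NaCl, 5% glycerol, 0.01% Triton X-100, 0.1 mg/ml BSA, 1 mM DTT, 1% DMSO. EDTA-quenched timepoints to 180 min, PicoGreen fluorescence. Initial rates vs inhibitor concentration fitted four-parameter for KI.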

Structure (SMILES) | Ki [nM]
Cc1cc(C(F)(F)F)cc(N2C(=O)C[C@@H]3CN(CCOCCN(C)C)c4c(Cl)cccc4N(C)C(=O)[C@H]32)n1 [Example 89, (3aR,11aS)-6-Chloro-5-(2-(2-(dimethylamino)ethoxy)ethyl)-10-methyl-1-(6-methyl-4-(trifluoromethyl)pyridin-2-yl)-1,3a,4,5,10,11a-hexahydro-2H-benzo[b]pyrrolo[2,3-f][1,4]diazocine-2,11(3H)-dione hydrochloride] | 1.85
Cc1cc(C(F)(F)F)cc(N2C(=O)C[C@@H]3CN(Cc4ccncc4)c4c(Cl)cccc4N(C)C(=O)[C@H]32)n1 [Example 94, (3aR,11aS)-6-Chloro-10-methyl-1-(6-methyl-4-(trifluoromethyl)pyridin-2-yl)-5-(pyridin-4-ylmethyl)-1,3a,4,5,10,11a-hexahydro-2H-benzo[b]pyrrolo[2,3-f][1,4]diazocine-2,11(3H)-dione] | 3.29
Cc1cc(C(F)(F)F)cc(N2C(=O)C[C@@H]3CN(C[C@@H]4CCNC4)c4c(Cl)cccc4N(C)C(=O)[C@H]32)n1 [Example 99, (3aR,11aS)-6-Chloro-10-methyl-1-(6-methyl-4-(trifluoromethyl)pyridin-2-yl)-5-(((R)-pyrrolidin-3-yl)methyl)-1,3a,4,5,10,11a-hexahydro-2H-benzo[b]pyrrolo[2,3-f][1,4]diazocine-2,11(3H)-dione hydrochloride] | 3.05
Cc1cc(C(F)(F)F)cc(N2C(=O)C[C@@H]3CN(C[C@H]4CCNC4)c4c(Cl)cccc4N(C)C(=O)[C@H]32)n1 [Example 100, (3aR,11aS)-6-Chloro-10-methyl-1-(6-methyl-4-(trifluoromethyl)pyridin-2-yl)-5-(((S)-pyrrolidin-3-yl)methyl)-1,3a,4,5,10,11a-hexahydro-2H-benzo[b]pyrrolo[2,3-f][1,4]diazocine-2,11(3H)-dione hydrochloride] | 1.75
Cc1cc(C(F)(F)F)cc(N2C(=O)C[C@@H]3CN(C[C@@H]4CCNC4)c4c(C)cccc4N(C)C(=O)[C@H]32)n1 [Example 103, (3aR,11aS)-6,10-Dimethyl-1-(6-methyl-4-(trifluoromethyl)pyridin-2-yl)-5-(((R)-pyrrolidin-3-yl)methyl)-1,3a,4,5,10,11a-hexahydro-2H-benzo[b]pyrrolo[2,3-f][1,4]diazocine-2,11(3H)-dione hydrochloride] | 2.43
Cc1cc(C(F)(F)F)cc(N2C(=O)C[C@@H]3CN(C[C@H]4CCNC4)c4c(C)cccc4N(C)C(=O)[C@H]32)n1 [Example 104, (3aR,11aS)-6,10-Dimethyl-1-(6-methyl-4-(trifluoromethyl)pyridin-2-yl)-5-(((S)-pyrrolidin-3-yl)methyl)-1,3a,4,5,10,11a-hexahydro-2H-benzo[b]pyrrolo[2,3-f][1,4]diazocine-2,11(3H)-dione hydrochloride] | 2.95
Cc1cc(C(F)(F)F)cc(N2C(=O)C[C@@H]3CN(CC4CCCNC4)c4c(Cl)cccc4N(C)C(=O)[C@H]32)n1 (stereo partly drawn) [Example 110, (3aR,11aS)-6-Chloro-10-methyl-1-(6-methyl-4-(trifluoromethyl)pyridin-2-yl)-5-(piperidin-3-ylmethyl)-1,3a,4,5,10,11a-hexahydro-2H-benzo[b]pyrrolo[2,3-f][1,4]diazocine-2,11(3H)-dione] | 2.08
Cc1cc(C(F)(F)F)cc(N2C(=O)C[C@@H]3CN(CC[C@H]4CCNC4)c4c(Cl)cccc4N(C)C(=O)[C@H]32)n1 [Example 111, (3aR,11aS)-6-Chloro-10-methyl-1-(6-methyl-4-(trifluoromethyl)pyridin-2-yl)-5-(2-((R)-pyrrolidin-3-yl)ethyl)-1,3a,4,5,10,11a-hexahydro-2H-benzo[b]pyrrolo[2,3-f][1,4]diazocine-2,11(3H)-dione hydrochloride] | 0.619
Cc1cc(C(F)(F)F)cc(N2C(=O)C[C@@H]3CN(Cc4cccnc4)c4c(C)cccc4N(C)C(=O)[C@H]32)n1 [Example 115, (3aR,11aS)-6,10-Dimethyl-1-(6-methyl-4-(trifluoromethyl)pyridin-2-yl)-5-(pyridin-3-ylmethyl)-1,3a,4,5,10,11a-hexahydro-2H-benzo[b]pyrrolo[2,3-f][1,4]diazocine-2,11(3H)-dione] | 1.08
Cc1cc(C(F)(F)F)cc(N2C(=O)C[C@@H]3CN(Cc4cn5c(n4)CN(C)CC5)c4c(C)cccc4N(C)C(=O)[C@H]32)n1 [Example 121, (3aR,11aS)-6,10-Dimethyl-1-(6-methyl-4-(trifluoromethyl)pyridin-2-yl)-5-((7-methyl-5,6,7,8-tetrahydroimidazo[1,2-a]pyrazin-2-yl)methyl)-1,3a,4,5,10,11a-hexahydro-2H-benzo[b]pyrrolo[2,3-f][1,4]diazocine-2,11(3H)-dione] | 0.258

Results, then the compound that gave them:

Ki [nM] | Structure (SMILES)
0.991 | Cc1cc(C(F)(F)F)cc(N2C(=O)C[C@@H]3CN(CCOCCN(C)C)c4c(C)cccc4N(C)C(=O)[C@H]32)n1 [Example 90, (3aR,11aS)-5-(2-(2-(Dimethylamino)ethoxy)ethyl)-6,10-dimethyl-1-(6-methyl-4-(trifluoromethyl)pyridin-2-yl)-1,3a,4,5,10,11a-hexahydro-2H-benzo[b]pyrrolo[2,3-f][1,4]diazocine-2,11(3H)-dione]
1.19 | Cc1cc(C(F)(F)F)cc(N2C(=O)C[C@@H]3CN(CC(=O)N4CCN(C)CC4)c4c(C)cccc4N(C)C(=O)[C@H]32)n1 [Example 93, (3aR,11aS)-6,10-Dimethyl-1-(6-methyl-4-(trifluoromethyl)pyridin-2-yl)-5-(2-(4-methylpiperazin-1-yl)-2-oxoethyl)-1,3a,4,5,10,11a-hexahydro-2H-benzo[b]pyrrolo[2,3-f][1,4]diazocine-2,11(3H)-dione]
3.7 | Cc1cc(C(F)(F)F)cc(N2C(=O)C[C@@H]3CN(Cc4cccnc4)c4c(Cl)cccc4N(C)C(=O)[C@H]32)n1 [Example 95, (3aR,11aS)-6-Chloro-10-methyl-1-(6-methyl-4-(trifluoromethyl)pyridin-2-yl)-5-(pyridin-3-ylmethyl)-1,3a,4,5,10,11a-hexahydro-2H-benzo[b]pyrrolo[2,3-f][1,4]diazocine-2,11(3H)-dione]
8.7 | Cc1cc(C(F)(F)F)cc(N2C(=O)C[C@@H]3CN(CC4CCCNC4)c4c(F)cccc4N(C)C(=O)[C@H]32)n1 (stereo partly drawn) [Example 97, (3aR,11aS)-6-Fluoro-10-methyl-1-(6-methyl-4-(trifluoromethyl)pyridin-2-yl)-5-(piperidin-3-ylmethyl)-1,3a,4,5,10,11a-hexahydro-2H-benzo[b]pyrrolo[2,3-f][1,4]diazocine-2,11(3H)-dione hydrochloride]
4.91 | Cc1cc(C(F)(F)F)cc(N2C(=O)C[C@@H]3CN(Cc4nc5n(n4)CCNC5)c4c(F)cccc4N(C)C(=O)[C@H]32)n1 [Example 98, (3aR,11aS)-6-Fluoro-10-methyl-1-(6-methyl-4-(trifluoromethyl)pyridin-2-yl)-5-((5,6,7,8-tetrahydro-[1,2,4]triazolo[1,5-a]pyrazin-2-yl)methyl)-1,3a,4,5,10,11a-hexahydro-2H-benzo[b]pyrrolo[2,3-f][1,4]diazocine-2,11(3H)-dione]
3.73 | Cc1cc(C(F)(F)F)cc(N2C(=O)C[C@@H]3CN(Cc4nnc5n4CCNC5)c4c(Cl)cccc4N(C)C(=O)[C@H]32)n1 [Example 101, (3aR,11aS)-6-Chloro-10-methyl-1-(6-methyl-4-(trifluoromethyl)pyridin-2-yl)-5-((5,6,7,8-tetrahydro-[1,2,4]triazolo[4,3-a]pyrazin-3-yl)methyl)-1,3a,4,5,10,11a-hexahydro-2H-benzo[b]pyrrolo[2,3-f][1,4]diazocine-2,11(3H)-dione hydrochloride]
0.237 | Cc1cc(C(F)(F)F)cc(N2C(=O)C[C@@H]3CN(Cc4cc5n(n4)CCN(C)C5)c4c(C)cccc4N(C)C(=O)[C@H]32)n1 [Example 113, (3aR,11aS)-6,10-Dimethyl-5-((5-methyl-4,5,6,7-tetrahydropyrazolo[1,5-a]pyrazin-2-yl)methyl)-1-(6-methyl-4-(trifluoromethyl)pyridin-2-yl)-1,3a,4,5,10,11a-hexahydro-2H-benzo[b]pyrrolo[2,3-f][1,4]diazocine-2,11(3H)-dione]
1.64 | Cc1cc(C(F)(F)F)cc(N2C(=O)C[C@@H]3CN(Cc4ccncc4)c4c(C)cccc4N(C)C(=O)[C@H]32)n1 [Example 114, (3aR,11aS)-6,10-Dimethyl-1-(6-methyl-4-(trifluoromethyl)pyridin-2-yl)-5-(pyridin-4-ylmethyl)-1,3a,4,5,10,11a-hexahydro-2H-benzo[b]pyrrolo[2,3-f][1,4]diazocine-2,11(3H)-dione]
